Laboratory results as given in US20260242390A1, “TOTAL SYNTHESES OF PORTIMINE A AND ANALOGUES THEREOF AS SMALL MOLECULE MODULATORS OF NMD3” (priority 2023, published 2026).

Test system: Jurkat cells
Assay: Immunoblot of caspase 3 in Jurkat cells
Type: cell-based, human
Conditions: for cell apoptosis / Caspase 3 activation: Jurkat 5M per well, 2 nM-1000 nM, 12 hours; for cell apoptosis, immunoblot of caspase 3: Jurkat cells, 12 hours at 10 nM; for caspase-3 cleavage in Jurkat cells: dose-dependent, immunoblot
Excerpt: FIG. 1. Portimine A is non-toxic to primary human PBMCs. Portimine A and its functional analogs show stereo-selective acute toxicity in cancer cells. […] (B) Structure of portimine related analogs: phenyl-portimine A (Ph-PA, 36) and epi-portimine A (ePA, 38). Structure of fully functionalized portimine A-based epimeric probe pair: portimine A-diazirine-alkyne (PA-DA, 35-2) and epi-portimine A-diazirine-alkyne (ePA-DA, 35-1). (C) Cell viability analysis of portimine A and analogs. Jurkat cells were treated with increasing concentrations of portimine A and analogs for 24 hours. All presented data as mean of biological replicated experiments (n=3). […] Jurkat cells were treated with portimine A or analogs for 12 hours at 10 nM.
FIG. 3. Initial SAR studies: Assessing activity of PAL functionalized PTMA analogs. […] (A) PA and Ph-PA show less toxic to healthy PBMCs compared to Jurkat cells. […] (B) Immunoblot of caspase-3 in Jurkat and PBMCs with indicated conditions.
FIG. 5. […] (I, J) Confirmation of PA-DA engagement of NMD3 in Jurkat and HCC1806 cells. […] Treatment condition: Jurkat (5M per well). Portimine A concentration: 2 nM-1000 nM; In total treat cell for 12 hours.
• 1) Portimine A and its functional analogs show stereo-selective acute toxicity in cancer cells (FIG. 1). […] (B) Structure of portimine related analogs: phenyl-portimine A (Ph-PA, 36) and epi-portimine A (ePA, 38). Structure of fully functionalized portimine A-based epimeric probe pair: portimine A-diazirine-alkyne (PA-DA, 35-2) and epi-portimine A-diazirine-alkyne (ePA-DA, 35-1). (C) Cell viability analysis of portimine A and analogs. Jurkat cells were treated with increasing concentrations of portimine A and analogs for 24 hours. All presented data as mean of biological replicated experiments (n=3). […] Jurkat cells were treated with portimine A or analogs for 12 hours at 10 nM. […] Structurally related negative control ePA and PB are non-toxic in all cell types in the current concentrate range. PBMCs (25k per well), Jurkat (10k per well). […] Cell cycle analysis in Jurkat cells (FIG. 2). Jurkat cells were treated with 10 nM of indicated compounds for 24 hours, and propodium iodide was used to identify different stages of cells by flow cytometry. […] (A) PA and Ph-PA show less toxic to healthy PBMCs compared to Jurkat cells. […] (B) Immunoblot of caspase-3 in Jurkat and PBMCs with indicated conditions. […] (A) Pharmacokinetic studies of mouse intraperitoneal (i.p.) and oral (p.o.) administration for portimine (n=3). […] Impact of PA [0.3 or 1 mg/kg intraperitoneally] on MC38 tumor growth in WT mice (n=6). (C) Kaplan-Myer survival curve of WT MC38 tumor-bearing mice (n=6) after treatment with PA as described in (D). Mice were euthanized when tumor area exceeded 2000 mm^3. Statistical analysis was performed using ANOVA analysis followed by multiple comparisons test, * p≤0.05. Treatment condition: Jurkat (60 M per condition); PA-DA/ePA-DA concentration: 0.5 uM, PA or ePA: 5 uM; Incubate with probe with or without competitors (PA, ePA) for 30 min; UV irradiated for 20 min. (0.5 uM PA-DA add a no-UV condition), Standard pulldown & biotin-enrichment and western blot analysis (Elute condition: 2× sample buffer+500 uM biotin, boil for 20 mins); Primary antibody NMD3 (ProteinTech, 1:150), Actin (BioRad, 1:10000). […] Chemical proteomic profiling with PA-DA in Jurkat cells (A, B, C, G) and HCC1806 cells (D, E, F, H) show NMD3 is the primary target candidate of portimine A. Volcano plot in panels A and D show protein competition in cells treated with active photoaffinity probe PA-DA (500 nM) and DMSO or the active competitor portimine A (PA, […]), dotted lines indicate threshold of fold change <4, p-value>0.05. […] (I, J) Confirmation of PA-DA engagement of NMD3 in Jurkat and HCC1806 cells. […] Treatment condition: Jurkat (5M per well). Portimine A concentration: 2 nM-1000 nM; In total treat cell for 12 hours. […] Protein degradation of p53, Mcl1, Bid, Bim, Noxa can be rescued by MG132 or Epoxomicin. […]

C=CC1=C[C@@H]2[C@@H]3O[C@]4(CC[C@H](O4)C(C)C[C@@H](O)C3=O)C[C@@H](O)C3=NCC[C@@]32CC1 (stereo partly drawn) [ePA, epi-portimine A]
cell apoptosis / Caspase 3 activation: does not show significant Caspase 3 activation | cell apoptosis, immunoblot of caspase 3: do not

C#CCCC1(CCNC(=O)c2ccc(C3=C[C@@H]4[C@@H]5O[C@]6(CC[C@H](O6)C(C)C[C@@H](O)C5=O)C[C@@H](O)C5=NCC[C@@]54CC3)cc2)N=N1 (stereo partly drawn) [ePA-DA, epi-portimine A-diazirine-alkyne]
cell apoptosis, immunoblot of caspase 3: do not

C=CC1=C[C@@H]2[C@@H]3O[C@]4(CC[C@H](O4)C(C)C[C@@H](O)C3=O)CC(O)C3=NCC[C@@]32CC1 (stereo partly shown) [PA, portimine A]
cell apoptosis / Caspase 3 activation: causes cell apoptosis in dose-dependent manner | cell apoptosis, immunoblot of caspase 3: induce cell apoptosis | caspase-3 cleavage in Jurkat cells: induced caspase-3 cleavage in a dose-dependent manner

CC1C[C@@H](O)C(=O)[C@H]2O[C@]3(CC[C@@H]1O3)CC(O)C1=NCC[C@@]13CCC(c1ccccc1)=C[C@H]23 (stereo partly shown) [Ph-PA, phenyl-portimine A]
cell apoptosis, immunoblot of caspase 3: induce cell apoptosis

C=CC1=C[C@@H]2[C@@H]3OC4(CC[C@H](O4)C(C)C[C@@H](O)C3=O)CC(=O)C3=NCC[C@@]32CC1 (stereo partly shown) [PB, portimine B]
cell apoptosis, immunoblot of caspase 3: do not

C#CCCC1(CCNC(=O)c2ccc(C3=C[C@@H]4[C@@H]5O[C@]6(CC[C@H](O6)C(C)C[C@@H](O)C5=O)CC(O)C5=NCC[C@@]54CC3)cc2)N=N1 (stereo partly shown) [PA-DA, portimine A-diazirine-alkyne]
cell apoptosis, immunoblot of caspase 3: induce cell apoptosis | caspase-3 cleavage in Jurkat cells: induced caspase-3 cleavage in a dose-dependent manner
